{"source": "patent US20250127904A1", "about": "“SIGLEC LIGANDS, CONJUGATES, AND METHODS OF USE THEREOF” (Osprey Biopharmaceuticals, Inc., priority 2023, published 2025)", "key": {"[1]": {"target": "recombinant cynomolgus siglec-2/CD22 His-tag (Macaca fascicularis, UniProt A0A2K5WCZ6)", "sequence (A0A2K5WCZ6 entry or part of it)": "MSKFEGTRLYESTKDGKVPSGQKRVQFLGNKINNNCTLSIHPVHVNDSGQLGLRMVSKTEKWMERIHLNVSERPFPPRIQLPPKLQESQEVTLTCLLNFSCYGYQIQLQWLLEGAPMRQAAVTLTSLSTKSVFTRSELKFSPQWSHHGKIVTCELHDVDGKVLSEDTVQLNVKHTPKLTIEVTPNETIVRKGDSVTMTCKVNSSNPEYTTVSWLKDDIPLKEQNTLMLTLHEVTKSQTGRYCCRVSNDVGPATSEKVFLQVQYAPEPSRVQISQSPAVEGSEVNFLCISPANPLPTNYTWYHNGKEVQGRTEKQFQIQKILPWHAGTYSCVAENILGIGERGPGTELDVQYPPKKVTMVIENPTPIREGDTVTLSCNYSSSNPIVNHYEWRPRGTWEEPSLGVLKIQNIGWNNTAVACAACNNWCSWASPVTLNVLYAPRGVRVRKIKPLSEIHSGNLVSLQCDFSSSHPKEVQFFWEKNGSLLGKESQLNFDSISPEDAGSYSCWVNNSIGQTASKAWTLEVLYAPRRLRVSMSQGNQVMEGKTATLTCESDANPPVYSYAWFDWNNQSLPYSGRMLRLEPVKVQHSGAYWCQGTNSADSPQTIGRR", "test": "SPR binding to cynomolgus siglec-2/CD22", "settings": "steady-state analysis, read-out: Cyno CD22 affinity", "procedure": "(§1) The following proteins were used for CD22 ligand binding: biotinylated human siglec-2/CD22 protein-His-Avitag (Acro Biosystems, Cat #SI2-H82E3), biotinylated mouse siglec-2-Fc-Avi (in-house production), and recombinant cynomolgus siglec-2/CD22 His-tag (R&D systems, Cat #9864-SL-050). Prior to immobilization, CD22 proteins were treated with SialoExo (Genovis, Cat #G1-SM1-020) for 4 hours at 37° C. to remove native sialic acid residues.\nSurface preparation for cyno CD22 protein consisted of amine coupling to Cytiva CM5 chip (Cytiva, Cat #BR100530) using the Cytiva amine coupling kit Type 2 (Cytiva, Cat #BR100633). Following the standard amine coupling protocols, EDC and NHS from the kit were mixed 1:1 and injected over flow cells 1 and 2. Cyno CD22 was then immobilized by injecting 10 μg/mL in Sodium Acetate, pH 5.5 onto flow cell (2) for 420 seconds at 10 uL/min, yielding approximately 2500 RU of captured protein. Any active carboxy groups were then capped with 1M Ethanolamine, pH 8.5 for 420 s on flow cells 1 and 2.\n(§2) Binding experiments of siglec-ligand conjugated proteins or Siglec ligand compounds were performed on the surfaces prepared above in 10 mM HEPES, 150 mM NaCl, 0.05% Tween-20, pH 7.5, 1% DMSO as the running buffer. Compounds were serially diluted in running buffer from 50 μM to 97.6 nM and injected over both the reference and active flow cells for 90 seconds at 30 μL/min. The compounds were then allowed to dissociate from the surface for 120 seconds. No regeneration was required as the compounds completely dissociated from the surface after 30 seconds. Solvent correction was performed using 0.5, 1, 1.5, and 2% DMSO spike into running buffer without DMSO. Data was analyzed using steady-state analysis in Biacore Insight Evaluation Software, version 3.0."}, "[2]": {"target": "T1, biotinylated mouse siglec-2-Fc-Avi (Mus musculus, UniProt P35329)", "T1 construct": "made in house", "T1 sequence (P35329 22-708 limits assumed)": "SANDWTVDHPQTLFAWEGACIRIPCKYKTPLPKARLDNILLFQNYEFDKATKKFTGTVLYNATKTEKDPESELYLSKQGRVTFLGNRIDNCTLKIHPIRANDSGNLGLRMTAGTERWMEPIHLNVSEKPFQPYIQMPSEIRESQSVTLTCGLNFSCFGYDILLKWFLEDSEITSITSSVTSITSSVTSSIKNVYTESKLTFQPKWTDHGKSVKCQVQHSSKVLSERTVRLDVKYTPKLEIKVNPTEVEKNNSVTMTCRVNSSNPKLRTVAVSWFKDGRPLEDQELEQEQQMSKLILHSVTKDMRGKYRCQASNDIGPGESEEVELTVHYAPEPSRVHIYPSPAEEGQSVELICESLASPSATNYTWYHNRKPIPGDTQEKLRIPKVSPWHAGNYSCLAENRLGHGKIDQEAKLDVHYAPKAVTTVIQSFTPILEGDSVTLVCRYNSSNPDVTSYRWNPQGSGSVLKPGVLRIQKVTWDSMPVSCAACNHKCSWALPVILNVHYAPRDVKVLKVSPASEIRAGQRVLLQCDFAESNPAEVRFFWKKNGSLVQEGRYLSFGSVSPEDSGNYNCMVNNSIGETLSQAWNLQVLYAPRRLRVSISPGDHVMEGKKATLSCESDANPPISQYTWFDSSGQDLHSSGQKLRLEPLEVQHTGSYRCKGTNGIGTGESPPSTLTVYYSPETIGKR", "test": "SPR binding to mouse siglec-2/CD22", "settings": "steady-state analysis, read-out: Mouse CD22 affinity", "procedure": "as §1\n(§3) Capture of biotinylated CD22 constructs was performed using a Cytiva SA chip (BR100398) on a Biacore 8K instrument. Human siglec 2 was immobilized on channels 1-4 and mouse siglec 2 on channels 5-8 on the active flow cell (2) and the reference flow cell (1) was immobilized with biotinylated human FGFR2 Fc Avi, an unrelated protein, to account for any nonspecific binding. Human siglec 2 and Mouse siglec 2 were diluted in running buffer to 20 μg/mL and injected on the active flow cell (2) for 300 seconds at 5 μL/min, yielding about 3500 RU of captured constructs.\nas §2"}, "[3]": {"target": "T2, biotinylated human siglec-2/CD22 protein-His-Avitag (Homo sapiens, UniProt P20273)", "T2 construct": "purchased Acro Biosystems SI2-H82E3", "T2 sequence (P20273 20-847)": "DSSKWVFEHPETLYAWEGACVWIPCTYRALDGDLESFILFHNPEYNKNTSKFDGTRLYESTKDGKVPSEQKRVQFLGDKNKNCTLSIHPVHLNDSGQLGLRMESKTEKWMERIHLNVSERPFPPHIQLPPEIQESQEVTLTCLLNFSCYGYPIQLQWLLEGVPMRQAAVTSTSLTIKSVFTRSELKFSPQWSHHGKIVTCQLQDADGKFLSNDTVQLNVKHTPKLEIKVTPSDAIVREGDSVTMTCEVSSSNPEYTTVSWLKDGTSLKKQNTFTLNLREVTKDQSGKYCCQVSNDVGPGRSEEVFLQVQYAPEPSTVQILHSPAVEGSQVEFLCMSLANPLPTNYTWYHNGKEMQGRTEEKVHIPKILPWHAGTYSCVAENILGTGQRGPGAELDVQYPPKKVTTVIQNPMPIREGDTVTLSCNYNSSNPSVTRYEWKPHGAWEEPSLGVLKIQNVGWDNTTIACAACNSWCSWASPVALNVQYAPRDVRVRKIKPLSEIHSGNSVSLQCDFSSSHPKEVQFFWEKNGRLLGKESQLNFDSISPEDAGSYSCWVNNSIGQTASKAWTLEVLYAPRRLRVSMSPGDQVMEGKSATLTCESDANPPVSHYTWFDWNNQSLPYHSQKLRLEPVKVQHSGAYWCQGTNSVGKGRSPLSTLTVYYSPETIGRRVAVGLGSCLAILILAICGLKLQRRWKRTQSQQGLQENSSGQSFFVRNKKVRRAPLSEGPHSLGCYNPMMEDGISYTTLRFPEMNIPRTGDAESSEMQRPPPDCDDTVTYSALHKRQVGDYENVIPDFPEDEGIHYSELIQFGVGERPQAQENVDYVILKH", "test": "SPR binding to human siglec-2/CD22", "settings": "steady-state analysis, read-out: Human CD22 affinity", "procedure": "as §1, §3, §2"}}}
{"smiles": "C#CCOCCOCCOCCOCCOCCNC(=O)N[C@H]1[C@H]([C@H](O)[C@H](O)CNC(=O)Cc2ccc(Cl)cc2)O[C@@](OCc2ccccc2)(C(=O)O)C[C@@H]1O", "note": "[Compound 22, (2R,4S,5R,6R)-5-(3-(3,6,9,12,15-pentaoxaoctadec-17-yn-1-yl)ureido)-2-(benzyloxy)-6-((1R,2R)-3-(2-(4-chlorophenyl)acetamido)-1,2-dihydroxypropyl)-4-hydroxytetrahydro-2H-pyran-2-carboxylic acid]", "values": [{"measurement": "Kd", "setting": "[1]", "result": "1000 to 10000", "unit": "nM"}, {"measurement": "Kd", "setting": "[2]", "result": "1000 to 10000", "unit": "nM"}, {"measurement": "Kd", "setting": "[3]", "result": "> 10000", "unit": "nM"}]}
{"smiles": "C#Cc1ccc(CC(=O)NC[C@@H](O)[C@@H](O)[C@@H]2O[C@@](OCCOCCOCCOC)(C(=O)O)C[C@H](O)[C@H]2NC(=O)CO)cc1", "note": "[Compound 25, (2R,4S,5R,6R)-6-((1R,2R)-3-(2-(4-ethynylphenyl)acetamido)-1,2-dihydroxypropyl)-4-hydroxy-5-(2-hydroxyacetamido)-2-(2-(2-(2-methoxyethoxy)ethoxy)ethoxy)tetrahydro-2H-pyran-2-carboxylic acid]", "values": [{"measurement": "Kd", "setting": "[1]", "result": "1000 to 10000", "unit": "nM"}, {"measurement": "Kd", "setting": "[2]", "result": "1000 to 10000", "unit": "nM"}, {"measurement": "Kd", "setting": "[3]", "result": "1000 to 10000", "unit": "nM"}]}
{"smiles": "C#Cc1ccc(CC(=O)NC[C@@H](O)[C@@H](O)[C@@H]2O[C@@](OCCCCCCc3cn(CCOCCOC)nn3)(C(=O)O)C[C@H](O)[C@H]2NC(=O)CO)cc1", "note": "[Compound 27, (2R,4S,5R,6R)-6-((1R,2R)-3-(2-(4-ethynylphenyl)acetamido)-1,2-dihydroxypropyl)-4-hydroxy-5-(2-hydroxyacetamido)-2-((6-(1-(2-(2-methoxyethoxy)ethyl)-1H-1,2,3-triazol-4-yl)hexyl)oxy)tetrahydro-2H-pyran-2-carboxylic acid]", "values": [{"measurement": "Kd", "setting": "[1]", "result": "< 1000", "unit": "nM"}, {"measurement": "Kd", "setting": "[2]", "result": "< 1000", "unit": "nM"}, {"measurement": "Kd", "setting": "[3]", "result": "< 1000", "unit": "nM"}]}
{"smiles": "C#Cc1ccc(CC(=O)NC[C@@H](O)[C@@H](O)[C@@H]2O[C@@](OCCCCCCn3cc(COCCOC)nn3)(C(=O)O)C[C@H](O)[C@H]2NC(=O)CO)cc1", "note": "[Compound 28, (2R,4S,5R,6R)-6-((1R,2R)-3-(2-(4-ethynylphenyl)acetamido)-1,2-dihydroxypropyl)-4-hydroxy-5-(2-hydroxyacetamido)-2-((6-(4-((2-methoxyethoxy)methyl)-1H-1,2,3-triazol-1-yl)hexyl)oxy)tetrahydro-2H-pyran-2-carboxylic acid]", "values": [{"measurement": "Kd", "setting": "[1]", "result": "< 1000", "unit": "nM"}, {"measurement": "Kd", "setting": "[2]", "result": "< 1000", "unit": "nM"}, {"measurement": "Kd", "setting": "[3]", "result": "< 1000", "unit": "nM"}]}
{"smiles": "CCCNC(=O)CCOCCOCCOCCOCCn1cc(-c2ccc(CC(=O)NC[C@@H](O)[C@@H](O)[C@@H]3O[C@@](OCCCCCCOC)(C(=O)O)C[C@H](O)[C@H]3NC(=O)CO)cc2)nn1", "note": "[Compound 52, (2R,4S,5R,6R)-6-((1R,2R)-1,2-dihydroxy-3-(2-(4-(1-(15-oxo-3,6,9,12-tetraoxa-16-azanonadecyl)-1H-1,2,3-triazol-4-yl)phenyl)acetamido)propyl)-4-hydroxy-5-(2-hydroxyacetamido)-2-((6-methoxyhexyl)oxy)tetrahydro-2H-pyran-2-carboxylic acid]", "values": [{"measurement": "Kd", "setting": "[1]", "result": "1000 to 10000", "unit": "nM"}, {"measurement": "Kd", "setting": "[2]", "result": "1000 to 10000", "unit": "nM"}, {"measurement": "Kd", "setting": "[3]", "result": "1000 to 10000", "unit": "nM"}]}
{"smiles": "CCCNC(=O)CCOCCOCCOCCOCCn1cc(-c2ccc(CC(=O)NC[C@@H](O)[C@@H](O)[C@@H]3O[C@@](OCCCCCCNc4c(NCCOC)c(=O)c4=O)(C(=O)O)C[C@H](O)[C@H]3NC(=O)CO)cc2)nn1", "note": "[Compound 53, (2R,4S,5R,6R)-6-((1R,2R)-1,2-dihydroxy-3-(2-(4-(1-(15-oxo-3,6,9,12-tetraoxa-16-azanonadecyl)-1H-1,2,3-triazol-4-yl)phenyl)acetamido)propyl)-4-hydroxy-5-(2-hydroxyacetamido)-2-((6-((2-((2-methoxyethyl)amino)-3,4-dioxocyclobut-1-en-1-yl)amino)hexyl)oxy)tetrahydro-2H-pyran-2-carboxylic acid]", "values": [{"measurement": "Kd", "setting": "[1]", "result": "< 1000", "unit": "nM"}, {"measurement": "Kd", "setting": "[2]", "result": "1000 to 10000", "unit": "nM"}, {"measurement": "Kd", "setting": "[3]", "result": "< 1000", "unit": "nM"}]}
{"smiles": "CCCNC(=O)CCOCCOCCOCCOCCn1cc(-c2ccc(CC(=O)NC[C@@H](O)[C@@H](O)[C@@H]3O[C@@](OCCCCCCn4cc(COCCOC)nn4)(C(=O)O)C[C@H](O)[C@H]3NC(=O)CO)cc2)nn1", "note": "[Compound 55, (2R,4S,5R,6R)-6-((1R,2R)-1,2-dihydroxy-3-(2-(4-(1-(15-oxo-3,6,9,12-tetraoxa-16-azanonadecyl)-1H-1,2,3-triazol-4-yl)phenyl)acetamido)propyl)-4-hydroxy-5-(2-hydroxyacetamido)-2-((6-(4-((2-methoxyethoxy)methyl)-1H-1,2,3-triazol-1-yl)hexyl)oxy)tetrahydro-2H-pyran-2-carboxylic acid]", "values": [{"measurement": "Kd", "setting": "[1]", "result": "1000 to 10000", "unit": "nM"}, {"measurement": "Kd", "setting": "[2]", "result": "1000 to 10000", "unit": "nM"}, {"measurement": "Kd", "setting": "[3]", "result": "< 1000", "unit": "nM"}]}
